Consider nine compounds from patent publication US20190192524A1, “Modulators of Caspase-6” (The University of British Columbia, priority 2014, published 2019).

One data set addresses T1, recombinant caspase-6 (Homo sapiens, UniProt P55212).
T1 construct: purchased BioMol
T1 sequence (P55212 24-293): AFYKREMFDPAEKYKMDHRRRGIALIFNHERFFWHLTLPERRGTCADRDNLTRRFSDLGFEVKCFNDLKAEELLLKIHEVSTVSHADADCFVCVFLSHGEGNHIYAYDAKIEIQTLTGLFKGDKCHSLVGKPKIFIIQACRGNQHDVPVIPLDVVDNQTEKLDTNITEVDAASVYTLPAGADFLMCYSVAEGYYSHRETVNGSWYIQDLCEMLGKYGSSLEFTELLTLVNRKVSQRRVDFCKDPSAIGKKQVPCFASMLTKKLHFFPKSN
In words: Simultaneous caspase-6 cleavage and 586 fragment detection by FRET. As to conditions: cell-free; Htt substrate from COS-7 cell lysates. Type of data set: biochemical. How it is done: Different concentrations of the PG3 compounds were incubated with the Htt protein and the caspase-6 enzyme. The Htt substrate from COS-7 cell lysates is cleaved by caspase 6 and fragments are detected by FRET between the N-terminal BKP1 antibody and the neo-epitope antibody against amino acid 586.
COS-7 cells were grown in DMEM supplemented with 10% fetal bovine serum, 1%/penicillin/streptomycin and 0.5% glutamine. Transfections were performed using the Fugene reagent (Roche) according to manufacturer's instructions. The transfected DNA encodes amino acids 1-1212 of the human Htt protein with 15 glutamines and a C-terminal HA-tag, under control of a CMV promoter (Warby, 2008, supra; Wellington et al., 2000. J Biol Chem 275:19831-19838). The construct that was transfected is 4c Htt, which contains D→A mutations at amino acids 513, 530, 552 and […] (SEQ ID NO: 1). 24 h after transfection, cells were harvested by trypsinization, pellets washed in PBS and lysed by suspension in lysis buffer (50 mM Tris pH 8, 150 mM NaCl, 1% Igepal, supplemented with 1× complete protease inhibitor (Roche) and 4 mM Pefabloc). Lysates were incubated on ice for 10 min, vortexed and sonicated for 4 sec before centrifugation at 21,000×g for 10 min at 4° C. Supernatants were saved, protein concentration determined with the Biorad DC assay and stored at −80° C. until use.
Dilution series of cell lysates and caspase-6 (2.2× final concentration) were prepared in FRET cleavage buffer (10 mM HEPES pH 7.4, 100 mM NaCl, 0.05% gelatin, 0.1% CHAPS, 2 mM DTT) since this buffer was previously found to best stabilize caspase-6 in dilute form at room temperature. For negative controls, 22 μM zVAD-fmk was added to the caspase-6 dilutions.
Tb-labelled BKP1 antibody and D2-labelled 586 antibody (Cisbio) were diluted to 1 ng/μl (Tb) and 10 ng/μl (D2) in FRET cleavage buffer and pre-mixed at a 1:1 ratio.
In each well of a white 384 well plate (Nunc), 10 μl cell lysate were mixed with 10 μl caspase and 2 μl antibody mix, the plate was centrifuged briefly and incubated in the Victor 3 multilabel plate reader (Perkin Elmer) at 37° C. FRET was measured every 30 min for up to 2 h with the following settings: Excitation: 340 nm, Emission 1: 615 nm, Emission 2: 665 nm, 50 μs delay, 200 μs window time, 2000 μs cycle time. To obtain the final FRET signal, the ratio between Emission 2/Emission 1 (D2/Tb signal) was calculated. After 2 h at 37° C., the assay plate was sealed and after further incubation at 4° C. for 20 h, the FRET signal was read again.

The target of data set [1] is T2, human caspase 6 lacking the pro-domain (Homo sapiens, UniProt P55212).
T2 sequence (P55212 with tags, fused parts or gaps): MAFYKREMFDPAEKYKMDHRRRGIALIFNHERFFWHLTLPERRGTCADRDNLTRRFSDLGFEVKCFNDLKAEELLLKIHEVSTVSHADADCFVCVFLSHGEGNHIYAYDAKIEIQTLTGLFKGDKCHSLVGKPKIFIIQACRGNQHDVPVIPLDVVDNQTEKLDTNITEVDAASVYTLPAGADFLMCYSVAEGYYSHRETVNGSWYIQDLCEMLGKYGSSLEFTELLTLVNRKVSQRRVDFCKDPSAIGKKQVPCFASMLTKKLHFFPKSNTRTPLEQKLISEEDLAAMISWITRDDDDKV
The data set is described as follows: Lamin A cleavage in HEK 293 cells overexpressing caspase-6 (Mesoscale ELISA). Details: The transfected DNA encodes amino acids 24-293 of the human caspase 6 enzyme with a C-terminal DDK tag; DDK-tag (C); expressed in transfected cells; host or cells: HEK 293. Type of data set: cell-based. As to conditions: 24 hr incubation; cleaved lamin A quantified; read-out: HEK intracellular IC50. The procedure:
HEK 293 cells were grown in DMEM supplemented with 10% fetal bovine serum, 1%/penicillin/streptomycin and 0.5% glutamine. Transfections were performed using the Fugene reagent (Roche) according to manufacturer's instructions. The transfected DNA encodes amino acids 24-293 of the human caspase 6 enzyme with a C-terminal DDK tag under the control of a CMV promoter (vector pCMVSport6) (SEQ ID NO: 2). The transfected HEK 293 were used to measure the intracellular activity of caspase-6 as evidenced by cleavage of the lamin substrate (described below).
The quantitative assessment of intracellular lamin cleavage in caspase-6 transfected HEK 293 cells was done as described previously (Ehrnhoefer et al. PLoS One, 2011. 6(11):e27680) Briefly, HEK 293 cell lysates were adjusted to 1 μg protein/μl in lysis buffer, diluted to 0.2 μg/μl in PBS and 5 μl were added to a Multi-Array high-bind 96 well plate (Mesoscale discovery). After incubation at room temperature for 1 h, the wells were blocked by adding 150 μl 5% BSA in PBS, followed by further incubation at room temperature for 1 h. Wells were then washed 3× with 150 μl PBS+0.05% Tween, and 25 μl antibody mix was added (Cell signaling #2036 at 1:100 dilution, Mesoscale discovery goat-anti-rabbit sulfo-tag at 1:500 dilution in PBS with 1% BSA). After lh incubation at room temperature, the wells were washed 3× with 150 μl PBS+0.05% Tween, and 150 μl/well 2× reading reagent (Mesoscale discovery) was added. The plate was read on a Sector imager 6000 (Mesoscale discovery).
The PG3 analog compounds were also tested for their ability to inhibit caspase-6 within cultured cells. HEK 293 cells were transfected with human caspase 6 lacking the pro-domain and were incubated with increasing concentrations of the PG3 analogs. After a 24 hr incubation, the excess compound was washed away, the cells were lysed and the amount of cleaved lamin A protein was quantified by the Mesoscale ELISA method.
For orientation: ELISA stands for enzyme-linked immunosorbent assay.

The target in data set [2] is T3, full-length human caspase-6 (Homo sapiens, UniProt P55212).
T3 construct: DDK-tag (C); expressed in transfected cells; host or cells: COS-7
T3 sequence (P55212 with tags, fused parts or gaps): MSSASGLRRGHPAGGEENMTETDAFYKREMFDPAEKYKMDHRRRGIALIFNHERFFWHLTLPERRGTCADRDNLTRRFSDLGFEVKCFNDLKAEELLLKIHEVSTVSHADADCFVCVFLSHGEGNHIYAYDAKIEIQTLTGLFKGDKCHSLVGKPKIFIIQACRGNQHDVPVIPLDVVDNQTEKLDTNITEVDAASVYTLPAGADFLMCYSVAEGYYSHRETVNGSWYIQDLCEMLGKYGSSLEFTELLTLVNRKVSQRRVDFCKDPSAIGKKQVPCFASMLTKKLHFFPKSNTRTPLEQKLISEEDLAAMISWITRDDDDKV
In words: Western blot of Htt fragments in COS-7 cells co-transfected with Htt 1-1212AA and full-length caspase-6. It is filed as cell-based. As to conditions: 3 uM inhibitor, 24 hr, vs DMSO. How it is done: (§1) COS-7 cells were co-transfected with the 1212 amino acid HTT fragment (SEQ ID NO: 3) and the full length human caspase-6 enzyme (SEQ ID NO:4). The co-transfected cells were exposed to either 10 uM of the PG3d compound, 3 uM of the Q-VD-Oph pan-caspase inhibitor or were treated with DMSO as a control. An aliquot of the cell lysates were subjected to Western blotting to detect HTT fragments with the Htt antibody 2166 (Millipore) and the presence of caspase-6 was detected using the HD91 antibody (Ehrnhoefer et al, HMG, 2014. 23(3):717-29). The remaining cell lysates (500 ug protein) were immunoprecipitated with 5 ug of Caspase-6 antibody for 16 hrs at 4 C. The immunoprecipitated proteins were then applied to acrylamide gels and immunoblotted to detect either the HTT fragments or the presence of the active caspase 6 enzyme using the antibodies described above.
Cos-7 cells were co-transfected with Htt 1-1212AA (SEQ ID NO:3) and full-length human caspase-6 (SEQ ID NO:6), and exposed to either the pan-caspase inhibitor Q-VD-OPh, the PG3d compound or DMSO as a negative control. As shown in the upper panel of FIG. 9A, control cells that received DMSO alone (lanes labelled n.t.) show the presence of the Htt 1212AA protein and the Htt proteolytic cleavage fragments including the 586, 552 and 513 amino acid fragments. […]
(In general: A western blot detects proteins with antibodies after separation by electrophoresis.)

Data set [3] has as its target T4, interaction between 1212AA Htt and caspase-6 (Homo sapiens, UniProt P55212).
T4 construct: DDK-tag (C); expressed in transfected cells; host or cells: COS-7
T4 sequence (P55212 with tags, fused parts or gaps): T3 sequence (P55212 with tags, fused parts or gaps)
The data set is described as follows: Co-immunoprecipitation of Htt with caspase-6 antibody from COS-7 lysates. It is filed as cell-based. As to conditions: 3 uM inhibitor, vs DMSO. How it is done:
as §1
As expected, the DMSO control lysates reveal a variety of Htt fragments within the immunocomplexes, including 513AA fragment generated by caspase-3 cleavage, the full-length 1212AA Htt and the 586AA fragment generated by caspase-6 cleavage. When the cells are treated with the pan-caspase inhibitor Q-VD-OPh, the amount of Htt cleavage fragments interacting with caspase-6 is reduced and it is evident that caspase-6 is primarily interacting with the 1212 AA Htt.

Data set [4] deals with T2, human caspase 6 lacking the pro-domain. In words: Intracellular Htt cleavage by Western blot in co-transfected COS-7 cells. Type of data set: cell-based. Details: DDK-tag (C); expressed in transfected cells; host or cells: COS-7. The note with it: 3 uM inhibitor. The procedure: COS-7 cells were co-transfected with the 4c htt fragment and the human caspase-6 lacking the pro-domain which leads to fast autoactivation of the caspase-6 enzyme and the generation of the 586 aa Htt cleavage fragment. The co-transfected cells were exposed to either 10 uM of the PG3d compound, 3 uM of the Q-VD-Oph pan-caspase inhibitor or were left untreated. Non-transfected cells were included as a negative control and the purified 586 aa Htt fragment was included as a positive control. Cell lysates were subjected to Western blotting and the 586AA fragment generated intracellularly was detected with Htt antibody 2166 (Millipore). Caspase-6 expression and activation was assessed by Western blotting using antibody HD91 (Ehrnhoefer et al, HMG, 2014. 23(3):717-29).
COS-7 cells were co-transfected with the 4c htt fragment and the human caspase-6 lacking the pro-domain which leads to fast autoactivation of the caspase-6 enzyme and the generation of the 586 aa Htt cleavage fragment. […] Non-transfected cells were included as a negative control and the purified 586 aa Htt fragment was included as a positive control. […] The cell lysates were also assayed for the levels of active caspase 6 enzyme as shown in the lower panel of FIG. 5B.

As a reminder, the IC50 is the concentration at which inhibition is half-maximal. As usually defined, the melting point is the temperature of the solid-liquid transition. In the case of `O=c1oc(C#Cc2ccc(Cl)cc2)nc(O)c1-c1ccccc1` [PG-3g, 2-[(4-Chlorophenyl)ethynyl]-4-hydroxy-5-phenyl-6H-1,3-oxazin-6-one], the melting point is 185 to 187 °C (dec.). In addition, the IC50 on recombinant caspase-6 was found to be 7.5 µM. For the same compound, in data set [1], the IC50 was 3.9 µM.
For the compound `O=C(C#Cc1ccccc1)NC(=O)Cc1ccccc1` [PG-3h, 3-Phenyl-N-(phenylacetyl)prop-2-ynamide], the IC50 on recombinant caspase-6 was found to be 8.1 µM; in data set [1], 4.8 µM.
`Cc1c(O)nc(C#Cc2ccccc2)oc1=O` [PG-3a, 4-Hydroxy-5-methyl-2-(phenylethynyl)-6H-1,3-oxazin-6-one] came in with a melting point of 184 to 186 °C. Further, the IC50 at recombinant caspase-6 amounted to 8.2 µM. Moreover, the IC50 in data set [1] is more than 15 µM.
With `CC(C)[C@H](NC(=O)c1ccc2ccccc2n1)C(=O)N[C@@H](CC(=O)O)C(=O)COc1c(F)cccc1F` [Q-VD-Oph, reference compound], in data set [2], the “amount of Htt cleavage fragments” value is listed as “reduction”. For the same compound, the “amount of Htt cleavage fragments interacting with caspase-6” value in data set [3] is listed as “reduced”. In data set [4], the “cleavage of the Htt protein to the 586 amino acid fragment” value was “reduced cleavage” and the “level of active caspase-6 enzyme” value is on record as “reduced level of active caspase-6 enzyme”.
In turn, `CCCCc1c(O)nc(C#Cc2ccccc2)oc1=O` [PG-3, 5-Butyl-4-hydroxy-2-(phenylethynyl)-6H-1,3-oxazin-6-one] registered a melting point of 157 to 159 °C. The IC50 at recombinant caspase-6 was found to be 13.8 µM.
On the same counts, the results for `Cc1c(O)nc(C#Cc2ccccc2Cl)oc1=O` [PG-3f, 2-[(2-Chlorophenyl)ethynyl]-4-hydroxy-5-methyl-6H-1,3-oxazin-6-one] are 175 to 178 °C and 57.3 µM.
As for `O=c1oc(C#Cc2ccccc2)nc(O)c1-c1ccccc1` [PG-3e, 4-Hydroxy-5-phenyl-2-(phenylethynyl)-6H-1,3-oxazin-6-one], the melting point was 187 to 189 °C. Moreover, the IC50 at recombinant caspase-6 came out at 3.9 µM. The IC50 in data set [1] is 2.5 µM.
`CC(C)c1c(O)nc(C#Cc2ccccc2)oc1=O` [PG-3c, 4-Hydroxy-5-isopropyl-2-(phenylethynyl)-6H-1,3-oxazin-6-one] registered a melting point of 202 to 203 °C. Also, on recombinant caspase-6, the IC50 is 12.2 µM. Moreover, the IC50 in data set [1] is more than 15 µM.
On the same counts, the results for `CCc1c(O)nc(C#Cc2ccccc2)oc1=O` [PG-3b, 5-Ethyl-4-hydroxy-2-(phenylethynyl)-6H-1,3-oxazin-6-one] are 177 to 178 °C, 8 µM and 12.1 µM.
